From patent publication US10023615B2, “Efficient transport into white blood cells” (priority 2008, dated 2018)
Square brackets hold non-standard residues; d marks the D form. Ends that are not written are not given here.

Legend:
[1] = system: Monocytes (CD14); test: Flow cytometry of FITC-transporter content in primary human white blood cells: monocytes; format: cell-based; conditions: 1 uM, 30 min, 37° C.
Excerpt: (§1) Primary human white blood cells (WBC) were obtained from whole blood after red blood cell lysis. […] Cells containing D-TAT-FITC and r3-L-TAT-FITC were finally analysed by flow cytometry to measure their respective transporter content.

[2] = system: Neutrophils (CD15); test: Flow cytometry of FITC-transporter content in primary human white blood cells: neutrophils; format: cell-based; conditions: 1 uM, 30 min, 37° C.
Excerpt: as §1

[3] = system: Lymphocytes T (CD3); test: Flow cytometry of FITC-transporter content in primary human white blood cells: lymphocytes T; format: cell-based; conditions: 1 uM, 30 min, 37° C.
Excerpt: as §1

[4] = system: Lymphocytes B (CD19); test: Flow cytometry of FITC-transporter content in primary human white blood cells: lymphocytes B; format: cell-based; conditions: 1 uM, 30 min, 37° C.
Excerpt: as §1

[5] = system: TNBS induced colitis; test: TNBS induced colitis (IBD study); format: in vivo
Experimental: b) Constitution of Test Groups and Dose Levels • The table below lists the experimental groups comprising the study.
c) Test Procedures • Colitis was induced by administration of TNBS dissolved in 50% Ethanol • All animals were then treated with doses of XG-102 in the range of 0.1 to 1000 μg/kg, […], as a single or repeated daily doses (see above).
d) Observations and Examinations • i) Clinical Signs • Throughout the duration of the above experiment, careful clinical examinations were carried out and recorded. Observations included changes external appearance, e.g. of the skin, fur, eyes, mucous membranes, occurrence of secretions and excretions (e.g. diarrhea), and autonomic activity. Changes in gait, posture and response to handling, as well as the presence of bizarre behavior, tremors, convulsions, sleep and coma were also noted. • ii) Body Weights • Determination of individual body weight of animals was made on a daily basis. • iii) Clinical Assessment of Colitis • Body weight, stool consistency and bleeding per rectum were all recorded daily and served as the parameters of disease severity score:
• iv) Gross Pathology of the Colon • On the last day of the experiment, animals were euthanized and the colon was removed for gross pathology evaluation according to the following score: […]

[6] = system: liver and lymph nodes; test: FITC-XG-102 and FITC-D-TAT localization in liver and lymph nodes; format: in vivo, Sprague Dawley rat; conditions: 1 mg/kg i.v., 6 h post-injection
Excerpt: FIG. 22A and FIG. 22B: 22A: FITC-XG-102 (SEQ ID NO: 233) localization in the liver. Three cellular fields of FITC-XG-102-labelled cells isolated from liver. From left to right, FITC-labelled XG-102, corresponding DAPI nuclear stain and merge of both images. […] Typicall Kupfer cell shape and nucleus can be differentiated from hepatocytes by their shape. Small and triangle in Kupfer cells in contrast to big exagonal, well organized hepatocytes. Obj 63; bar, 20 μm. 22B: FITC-D-TAT (SEQ ID NO: 4) localization in the liver. Two cellular fields of FITC-D-TAT-labelled cells isolated from liver. From left to right, FITC-labelled XG-102, corresponding DAPI nuclear stain and merge of both images. […] Typicall Kupfer cell shape and nucleus can be differentiated from hepatocytes by their shape. Small and triangle in Kupfer cells in contrast to big exagonal, well organized hepatocytes. Obj 63; bar, 20 μm.
(§2) FIG. 23A and FIG. 23B: 23A: FITC-XG-102 (SEQ ID NO: 233) localization in lymph nodes. Cellular field of FITC-XG-102-labelled cells isolated from lymph nodes. Upper panels from left to right: the composite image is organized with one cellular field stained with FITC-XG-102 (left), Dapi for nuclear stain (middle) and the corresponding merged image (right). In the lower panels, a zoomed cell cluster of each image is illustrated. […] The absence of FITC staining in the lymphoid follicles allows distinguishing from the medullary corde and cortex area. Medullary zone seems to have incorporated the FITC-XG-102, composed in majority by macrophages. Obj 10; bar, 50 μm.
as §2, with “23B:” for “FIG. 23A and FIG. 23B:”, “FITC-D-TAT” for “23A: FITC-XG-102”, “4)” for “233)”, “FITC-D-TAT-labelled” for “FITC-XG-102-labelled”, “FITC-D-TAT” for “FITC-XG-102”, “FITC-D-TAT,” for “FITC-XG-102,”
Female Sprague Dawley rat was injected i.v. in the tail with either 1 mg/kg of FITC-XG102 (SEQ ID NO:233) or 1 mg/kg FITC-D-TAT (SEQ ID NO:4). Rats were sacrified 6 h post-injection using a lethal dose of sodium pentobarbital (150 mg/kg i.p.). For histological analysis and during narcosis, rats were perfused through the heart with 4% paraformaldehyde (PFA) in PBS. Organs (liver and lymph nodes) were cryoprotected in sucrose (30% in PBS), frozen using liquid isopentane and kept for further cryostat sectioning. Sections of 14 μm were incubated for 5 min in PBS before Hoechst staining for 2 min at RT (1 μg/ml). […]

FITC-βA-rKKRrQRRr [r3-L-TAT-FITC] was tested, and the “percentage of cells gated, lower left quadrant” value (“percentage … lower left quadrant” for short) [1] was 40.77%, the “percentage of cells gated, lower right quadrant” value [1] was 36.24% and the “percentage of cells gated, upper left quadrant” value (from here on “percentage … upper left quadrant”) [1] was 6.34%. The “percentage of cells gated, upper right quadrant” value [1] was 16.65%, the “percentage … lower left quadrant” value [2] was 49.75% and the “percentage of cells gated, lower right quadrant” value [2] was 24.76%. The “percentage … upper left quadrant” value [2] was 11.74%, the “percentage of cells gated, upper right quadrant” value [2] was 13.75% and the “percentage … lower left quadrant” value [3] was 50.36%. For the same molecule, the “percentage of cells gated, lower right quadrant” value [3] was 20.04%, the “percentage … upper left quadrant” value [3] was 20.64% and the “percentage of cells gated, upper right quadrant” value [3] was 8.96%. For the same molecule, the “percentage … lower left quadrant” value [4] was 61.92%, the “percentage of cells gated, lower right quadrant” value [4] was 8.48% and the “percentage … upper left quadrant” value [4] was 27.83%. For the same molecule, the “percentage of cells gated, upper right quadrant” value [4] was 1.76%.
For `O=C(O)c1cc(/N=N/c2ccc(S(=O)(=O)Nc3ccccn3)cc2)ccc1O` [Sulfasalazine, reference compound], the clinical score ([5]; any dose, route or time schedule (single dose or daily dose)) was “reduction in the clinical score” and the gross pathology score ([5]; end of the study) was “effective in reducing the gross pathology completely”.
“FITC-XG-102: FITC-labelled XG-102 (SEQ ID NO: 233) ([dD][dQ][dS][dR][dP][dV][dQ][dP][dF][dL][dN][dL][dT][dT][dP][dR][dK][dP][dR][dP][dP][dR][dR][dR][dQ][dR][dR][dK][dK][dR]G; not fully specified (N-terminus, C-terminus); also: FITC label, site not given here)” was tested, and the “localization in lymph nodes” value [6] was “decorates subcapsular sinus macrophages and constitutive migrating alveolar macrophages” and the “localization in the liver” value [6] was “efficiently decorates Kupfer cells in contrast to hepatocytes which only show a background staining level”.
